In US6875737B1, “Multivalent compounds for crosslinking receptors and uses thereof” (Trustees of Tufts College, priority 1996, dated 2005):
Where two headings read alike, the source gives them in different places. Marks after values point to notes of the source that are not given here. Blank lines part the entries; values can stand above or below the compound they belong to. Ends that are not written are not given here.

Tests used:
[1] = tested on: Dipeptidyl Peptidase IV (DP IV, CD26); test: Inhibition of DP IV (CD26) proteinase activity, Ki; assay type: biochemical; details: soluble DP IV (CD26)
Text: Assays to measure CD26 (DP IV) activity will be performed on both the homobivalent compounds, e.g., Lys-boroPro coupled to another, and the heterobivalent compounds, e.g., Lys-boroPro coupled to a peptide specific for a T cell surface receptor, e.g., moth cytochrome C peptide. Methods for quantitatively measuring the interaction of small peptidomimetic inhibitors with CD26 or DP IV, as well as for the interaction of CD26 with larger ligands, e.g., the HIV Tat protein, have been developed (W. G. Gutheil and W. W. Bachovchin. Separation of L-Pro-DL-boroPro into Its Component Diastereomers and Kinetic analysis of Their Inhibition of Dipeptidyl Peptidase IV. A New Method for the Analysis of Slow, Tight-Binding Inhibition, Biochemistry 32, 8723-8731 (1993); Gutheil, W. G., and W., B. W. Kinlsq, A Matlab Program for Fitting Kinetics Data with Numerically Integrated Rate Equations and Its Application to the Analysis of Slow, Tight Binding Data, Analytical Biochemistry 223, 13-20 (1994); Gutheil, W. G., Subramanyam, M., Flentke, G. R., Sanford, D. G., Munoz, E., Huber, B. T., and Bachovchin, W. W. HIV-1 Tat Binds to DP IV (CD26): A possible Mechanism for Tat's Immunosuppressive Activity, Proc. Natl. Acad. Sci. U.S.A. 91, 6594-6598 (1994)). These methods use the chromatogenic substrate Ala-Pro-p-nitroanilide (APpNA) and fluorescent substrate Ala-Pro-7-amino-4-trifluoromethyl coumarin (AP-AFC). APpNA and AP-AFC are commercially available (e.g., Enzyme Systems Products, Dublin, Calif.).

[2] = mice; cited from earlier work
H9 cells [3] = test: IL-2 production by H9 cells stimulated with anti-CD3 mAb OKT3 (HT2 bioassay); assay type: cell-based
Method: To determine the effect KbP2-Adipate had on anti-CD3 mAb stimulation of H9 cells, e.g., stimulation of suppressing IL-2 production, the following protocol was used.
In quadruplicate wells, H9 cells were preincubated with KbP2-Adipate for 0, 30, 60, or 150 min. After the preincubation, the cells were seeded into a 96 well flatbottom plate pre-coated with anti-CD3 monoclonal antibody OKT3 at 1,000, 5,000, 10,000, 20,000, 50,000, or 100,000 times dilution of stock. After 24 hr, the cells were lysed by freezing at […]. IL-2 concentration in the H9 cells lysates was bioassayed using the IL-2 dependent cell line HT2, Watson, J. D. “Continuous proliferation of murine antigen specific helper T lymphocytes in culture,” 1979, Journal of Experimental Medicine, 150:1510. HT2 proliferation was measured by counting 3H-thymidine incorporation.
Similar experiments were carried out with (KbP)2-EGS and the co-stimulatory antibody OKT3; the results of these experiments are shown in FIG. 12.

H9 cells [4] = test: H9 cell viability, trypan blue hemocytometry counts and flow cytometry; assay type: cell-based
Text: Possible explanations for the observed inhibitory activity shown in FIG. 3 were eliminated with proper negative controls.

[5] = Conformational equilibrium of cyclic and open chain forms; assay type: physicochemical; details: at equilibrium at pH 7.0
Text: G. Gutheil and W. W. Bachovchin, separation of L-Pro-DL-boroPro into Its Component Diastereomers and Kinetic Analysis of Their Inhibition of Dipeptidyl Peptidase IV. A New Method for the Analysis of Slow, Tight-Binding Inhibition, Biochemistry 32, 8723-8731 (1993)).

[6] = tested on: Dipeptidyl Peptidase IV (DP IV, CD26); details: cited from earlier work
[7] = tested on: T cell clone 2E5.G10.G5.E5; test: T cell clone proliferation, thymidine uptake; assay type: cell-based
Method: (§1) The proliferative effect of PLP-S-KbP on several different T cell clones that recognize PLP 139-151 were tested. T cell clones that recognize an irrelevant epitope, were used as negating controls. The protocol used is described (Kuchroo, V. K., et al., B7-1 and B7-2 Costimulatory Molecules Activate Differentially the Th1/Th2 Developmental Pathways: Application to Autoimmune Disease Therapy, Cell 80, 707-718 (1995)) and is incorporated herein by reference. Proliferation was measured by thymidine uptake. Table 1 below compares the effect PLP-S-KbP, antigenic PLP 139-151 peptide and non-antigenic PLP 103-116 peptide has on proliferation in different five PLP 139-151 specific T cell clones.

[8] = tested on: T cell clone 4E3.B11.D9.H10.H6; test: T cell clone proliferation, thymidine uptake; assay type: cell-based
Method: as §1

[9] = tested on: T cell clone 5B8.G8.E6.H12; test: T cell clone proliferation, thymidine uptake; assay type: cell-based
Method: as §1

T cell clone 7A5.F10.G11 = test: T cell clone proliferation, thymidine uptake; assay type: cell-based
Method: as §1

[10] = tested on: T cell clone SPL.C1.H2.F2; test: T cell clone proliferation, thymidine uptake; assay type: cell-based
Method: as §1

DP IV inhibition [1]: non inhibitory
Compound: NCCCC[C@H](N)C(=O)N1CCC[C@H]1B(O)O (single isomer, unassigned) [L,D isomer, Lys-boroPro]

DP IV inhibition [1]: inhibitory
Compound: NCCCC[C@H](N)C(=O)N1CCC[C@H]1B(O)O (single isomer, unassigned) [L,L isomer, Lys-boroPro]

Compound: C[C@H](N)C(=O)N1CCC[C@H]1B(O)O [Ala-boroPro]
immune response in vivo (antibody production after antigen challenge) [2]: inhibited an immune response in vivo in mice

Compound: N[C@@H](CCCCNC(=O)CCCCC(=O)NCCCC[C@H](N)C(=O)N1CCC[C@H]1B(O)O)C(=O)N1CCC[C@H]1B(O)O [KbP2-Adipate, di(L-Lysine-L-boroProline)adipate]
shape of dose response on IL-2 production (H9 cells [3]): decreases with increasing KbP2-Adipate concentrations
suppression of IL-2 production (H9 cells [3]; 4.0×10^−10 M, anti-CD3 mAb stimulation of H9 cells (FIG. 4)): 98%
concentration range where stimulatory effect begins (H9 cells [3]; FIG. 5): ~1 pM
concentration range where stimulatory effect saturates (H9 cells [3]; FIG. 5): ~10 mM
augmentation of IL-2 production (co-stimulatory activity) (H9 cells [3]; higher concentrations (FIG. 5), depends on concentration and preincubation time): up to 4 fold
effect on IL-2 production (H9 cells [3]; higher concentrations, e.g. 10^−6 M (FIG. 5)): potent stimulator
effect on IL-2 production (H9 cells [3]; lower concentrations, e.g. 10^−10 M (FIG. 4)): potent inhibitor
cell viability (H9 cells [4]): did not affect cell viability

DP IV inhibition [1]: potent inhibitors
Compound: CC(N)C(=O)N1CCCC1B(O)O [L-Ala-D,L-boroPro]

DP IV inhibition [1]: potent inhibitors
Compound: O=C(C1CCCN1)N1CCCC1B(O)O [L-Pro-D,L-boroPro]

fraction existing as open chain, inhibitory species [5]: less than 1%
Compound: O=C(C1CCCN1)N1CCCC1B(O)O (stereo not shown) [Pro-boroPro]
immune response in vivo (antibody production after antigen challenge) [2]: inhibited an immune response in vivo in mice

Compound: CC(C)C(N)C(=O)N1CCCC1B(O)O (stereo not shown) [Val-boroPro]
fraction existing as open chain, inhibitory species [5]: less than 0.1%

Compound: OB(O)C1CCCN1 (stereo not shown) [boroPro]
DP IV inhibition [6]: not an effective inhibitor

Compound: HSLGKWLGHPDKF [PLP 139-151, peptide corresponding to residues 139-151 of myelin proteolipid protein]
proliferation, thymidine uptake ([7]; dose 0.1 μM): 101 ^3H counts
proliferation, thymidine uptake ([7]; dose 1 μM): 288 ^3H counts
proliferation, thymidine uptake ([7]; dose 10 μM): 70 ^3H counts
proliferation, thymidine uptake ([7]; dose 100 μM): 1,506 ^3H counts
proliferation, thymidine uptake ([8]; dose 0.1 μM): 318 ^3H counts
proliferation, thymidine uptake ([8]; dose 1 μM): 125 ^3H counts
proliferation, thymidine uptake ([8]; dose 10 μM): 534 ^3H counts
proliferation, thymidine uptake ([8]; dose 100 μM): 1,932 ^3H counts
proliferation, thymidine uptake ([9]; dose 0.1 μM): 106 ^3H counts
proliferation, thymidine uptake ([9]; dose 1 μM): 349 ^3H counts
proliferation, thymidine uptake ([9]; dose 10 μM): 9,176 ^3H counts
proliferation, thymidine uptake ([9]; dose 100 μM): 41,073 ^3H counts
proliferation, thymidine uptake (T cell clone 7A5.F10.G11; dose 0.1 μM): 117 ^3H counts
proliferation, thymidine uptake (T cell clone 7A5.F10.G11; dose 1 μM): 222 ^3H counts
proliferation, thymidine uptake (T cell clone 7A5.F10.G11; dose 10 μM): 406 ^3H counts
proliferation, thymidine uptake (T cell clone 7A5.F10.G11; dose 100 μM): 2,324 ^3H counts
proliferation, thymidine uptake ([10]; dose 0.1 μM): 423 ^3H counts
proliferation, thymidine uptake ([10]; dose 1 μM): 107 ^3H counts
proliferation, thymidine uptake ([10]; dose 10 μM): 400 ^3H counts
proliferation, thymidine uptake ([10]; dose 100 μM): 809 ^3H counts

Compound: HSLGKWLGHPDKFAAAAAA-εKbP (not fully specified (C-terminus); printed as HSLGKWLGHPDKFAAAAAA-εKbP; also: C-terminus joined to epsilon-amino of Lys, which carries boroPro) [PLP-S-KbP, Lys-boroPro linked by its ε-amino group via six alanines to the C terminus of PLP 139-151]
proliferation, thymidine uptake ([7]; dose 0.1 μM): 175 ^3H counts
proliferation, thymidine uptake ([7]; dose 1 μM): 7,738 ^3H counts
proliferation, thymidine uptake ([7]; dose 10 μM): 26,410 ^3H counts
proliferation, thymidine uptake ([7]; dose 100 μM): 36,686 ^3H counts
proliferation, thymidine uptake ([8]; dose 0.1 μM): 3,688 ^3H counts
proliferation, thymidine uptake ([8]; dose 1 μM): 8,580 ^3H counts
proliferation, thymidine uptake ([8]; dose 10 μM): 15,753 ^3H counts
proliferation, thymidine uptake ([8]; dose 100 μM): 17,608 ^3H counts
proliferation, thymidine uptake ([9]; dose 1 μM): 22,022 ^3H counts
proliferation, thymidine uptake ([9]; dose 10 μM): 53,628 ^3H counts
proliferation, thymidine uptake ([9]; dose 100 μM): 34,716* ^3H counts
proliferation, thymidine uptake (T cell clone 7A5.F10.G11; dose 0.1 μM): 187 ^3H counts
proliferation, thymidine uptake (T cell clone 7A5.F10.G11; dose 1 μM): 8,202 ^3H counts
proliferation, thymidine uptake (T cell clone 7A5.F10.G11; dose 10 μM): 35,521 ^3H counts
proliferation, thymidine uptake (T cell clone 7A5.F10.G11; dose 100 μM): 43,999 ^3H counts
proliferation, thymidine uptake ([10]; dose 0.1 μM): 681 ^3H counts
proliferation, thymidine uptake ([10]; dose 1 μM): 2,527 ^3H counts
proliferation, thymidine uptake ([10]; dose 10 μM): 17,516 ^3H counts
proliferation, thymidine uptake ([10]; dose 100 μM): 31,635 ^3H counts

Compound: PLP103-116: non-antigenic PLP 103-116 peptide (DYKTTICGKGLSAT)
proliferation, thymidine uptake ([7]; dose 0.1 μM): 307 ^3H counts
proliferation, thymidine uptake ([7]; dose 1 μM): 434 ^3H counts
proliferation, thymidine uptake ([7]; dose 10 μM): 60 ^3H counts
proliferation, thymidine uptake ([7]; dose 100 μM): 107 ^3H counts
proliferation, thymidine uptake ([8]; dose 0.1 μM): 178 ^3H counts
proliferation, thymidine uptake ([8]; dose 1 μM): 559 ^3H counts
proliferation, thymidine uptake ([8]; dose 10 μM): 224 ^3H counts
proliferation, thymidine uptake ([8]; dose 100 μM): 274 ^3H counts
proliferation, thymidine uptake ([9]; dose 0.1 μM): 124 ^3H counts
proliferation, thymidine uptake ([9]; dose 1 μM): 226 ^3H counts
proliferation, thymidine uptake ([9]; dose 10 μM): 74 ^3H counts
proliferation, thymidine uptake ([9]; dose 100 μM): 143 ^3H counts
proliferation, thymidine uptake (T cell clone 7A5.F10.G11; dose 0.1 μM): 556 ^3H counts
proliferation, thymidine uptake (T cell clone 7A5.F10.G11; dose 1 μM): 314 ^3H counts
proliferation, thymidine uptake (T cell clone 7A5.F10.G11; dose 10 μM): 117 ^3H counts
proliferation, thymidine uptake (T cell clone 7A5.F10.G11; dose 100 μM): 124 ^3H counts
proliferation, thymidine uptake ([10]; dose 0.1 μM): 238 ^3H counts
proliferation, thymidine uptake ([10]; dose 1 μM): 123 ^3H counts
proliferation, thymidine uptake ([10]; dose 10 μM): 479 ^3H counts
proliferation, thymidine uptake ([10]; dose 100 μM): 150 ^3H counts
